In publication PMC7287882, “Dual miRNases for Triple Incision of miRNA Target: Design Concept and Catalytic Performance” (Molecules, 2020):

Tested on: miR-155
Assay: Ribonuclease activity assay, cleavage of miR-155
Assay type: biochemical
Details: miRNA 1 µM, DC 20 µM, 37 °C
Method: The ribonuclease activity of DCs was studied under two different buffer conditions: buffer (1) contained 50 mM Tris-HCl, pH 7.0, 200 mM KCl, 1 mM EDTA, which imitates intracellular conditions (e.g., pH and potassium ions concentration) and was used in a number of studies previously; and buffer (2) contained 20 mM Tris-HCl, pH 7.8, 40 mM KCl, 8 mM MgCl2, 1 mM DTT, 0.02 mg/mL BSA, which is recommended for in vitro reactions with RNase H (Figure 3 and Figure 4).
Figure 3 Kinetics of cleavage of 5′-[^32P]-labeled miR-17, miR-18a, miR-155, miR-21 and miR-21_1 by corresponding DCs in the buffer (1), containing 50 mM Tris-HCl, pH 7.0, 200 mM KCl and 1 mM EDTA. (a–e) Radioautographs of 18% denaturing PAAG showing the cleavage products of miR-17, miR-18a, miR-155, miR-21 and miR-21_1, respectively. miRNA (1 µM) and corresponding DC (20 µM) were incubated at 37 °C for 72 h. Lanes Im and T1—imidazole ladder and partial RNA digestion with RNase T1, respectively; control–miRNA was incubated in the absence of the conjugate. The incubation time (in hours) is show at the top. SS gap–single-stranded region of miRNA formed upon hybridization with DC; (f) Kinetics of miRNAs cleavage by DCs depending on the incubation time. Data are presented as mean ± s.e.
Figure 4 Kinetics of cleavage of 5′-[^32P]-labeled miR-17, miR-18a, miR-155, miR-21, and miR-21_1 by corresponding DCs in the buffer (2), containing 20 mM Tris-HCl, pH 7.8, 40 mM KCl, 8 mM MgCl2, 1 mM DTT, 0.02 mg/mL BSA. (a–e) Radioautographs of 18% denaturing PAAG showing the cleavage products of miR-17, miR-18a, miR-155, miR-21 and miR-21_1, respectively. miRNA (1 µM) and corresponding DC (20 µM) were incubated at 37 °C for 72 h. Lanes Im and T1–imidazole ladder and partial RNA digestion with RNase T1, respectively; control–miRNA was incubated in the absence of the conjugate. The incubation time (in hours) is shown at the top. SS gap–single-stranded region of miRNA formed upon hybridization with DC; (f) Kinetics of miRNAs cleavage by DCs. Data are presented as mean ± s.e.
The reaction mixture (10 µL) contained 800 cpm (Cherenkov’s counting) of [^32P]-miRNA, 1 μM unlabeled miRNA, one of the conjugates at a concentration 10 or 20 μM and one of the buffers: 50 mM Tris-HCl, pH 7.0, 200 mM KCl, 1 mM EDTA–buffer (1) or 20 mM Tris-HCl, pH 7.8, 40 mM KCl, 8 mM MgCl2, 1 mM DTT, 0.02 mg/mL BSA–buffer (2). The mixture was incubated at 37 °C for 0–72 h and quenched by precipitation of RNA with 2% LiClO4 in acetone (90 µL). RNA was collected by centrifugation and dissolved in loading buffer (8 M urea, 0.025% bromophenol blue, 0.025% xylene cyanol). RNA cleavage products were analyzed in 18% PAAG/8M urea using TBE (100 mM Tris-borate, pH 8.3, 2 mM EDTA) as running buffer. To identify cleavage sites, an imidazole and T1-ladders produced by partial RNA cleavage with 2 M imidazole buffer (pH 7.0) and with RNase T1 [68], respectively, were run in parallel. To obtain quantitative data, gels were dried and analyzed using Molecular Imager FX. The total extent of RNA cleavage and the extent of RNA cleavage at each individual site were determined by using Quantity One software v.4.1 (Bio-Rad, Hercules, CA, USA).

## ACCCCTAT–linker 1–[GRLRL]2–linker 2–TTAGCATTAA [miRNA-155-DC, Dual oligonucleotide-peptide conjugate targeted to miR-155: catalytic peptide [LRLRG]2 between two 2-aminoadenine-containing oligodeoxyribonucleotides]
Buffer (1) 50 mM Tris-HCl pH 7.0, 200 mM KCl, 1 mM EDTA, 2 h
  Total Cleavage: 0%
Buffer (1) 50 mM Tris-HCl pH 7.0, 200 mM KCl, 1 mM EDTA, 6 h
  Total Cleavage: 0%
Buffer (1) 50 mM Tris-HCl pH 7.0, 200 mM KCl, 1 mM EDTA, 24 h
  Total Cleavage: 0,5%
Buffer (1) 50 mM Tris-HCl pH 7.0, 200 mM KCl, 1 mM EDTA, 48 h
  Total Cleavage: 16%
Buffer (1) 50 mM Tris-HCl pH 7.0, 200 mM KCl, 1 mM EDTA, 72 h
  Total Cleavage: 21%
Buffer (2) 20 mM Tris-HCl pH 7.8, 40 mM KCl, 8 mM MgCl2, 1 mM DTT, 0.02 mg/mL BSA, 2 h
  Total Cleavage: 15%
Buffer (2) 20 mM Tris-HCl pH 7.8, 40 mM KCl, 8 mM MgCl2, 1 mM DTT, 0.02 mg/mL BSA, 6 h
  Total Cleavage: 41%
Buffer (2) 20 mM Tris-HCl pH 7.8, 40 mM KCl, 8 mM MgCl2, 1 mM DTT, 0.02 mg/mL BSA, 24 h
  Total Cleavage: 56%
Buffer (2) 20 mM Tris-HCl pH 7.8, 40 mM KCl, 8 mM MgCl2, 1 mM DTT, 0.02 mg/mL BSA, 48 h
  Total Cleavage: 57%
Buffer (2) 20 mM Tris-HCl pH 7.8, 40 mM KCl, 8 mM MgCl2, 1 mM DTT, 0.02 mg/mL BSA, 72 h
  Total Cleavage: 72%
  rise of Kobs in buffer (2) compared to Kobs in buffer (1): 6 fold
